Tested on: 958667-338-R-J2-PDC tumor spheroids viability
Experiment: Anticancer human tumor 958667-338-R-J2-PDC patient-derived colon adenocarcinoma cell line growth inhibition [PI3K]
Details: spheroids with HUVEC and MSC; for IC50: curve of first compound; for viability, T/C: stronger effect = lower value
Summary of the method: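 Tumor cells grown as multi-cell spheroids with HUVEC endothelial cells and MSC fibroblast-like stroma were treated with targeted agents combined with inavolisib, alpelisib, duvelisib or copanlisib. Doses fell in half-log steps from near clinical Cmax, else from 10 microM. Viability was measured.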

[1] = second compound 0.0316 µM, first compound 0.000316 µM
[2] = second compound 0.0316 µM, first compound 0.001 µM
[3] = second compound 0.0316 µM, first compound 0.00316 µM
[4] = second compound 0.0316 µM, first compound 0.01 µM
[5] = second compound 0.0316 µM, first compound 0.0316 µM
[6] = second compound 0.0316 µM, first compound 0.1 µM
[7] = second compound 0.1 µM, first compound 0.000316 µM
[8] = second compound 0.1 µM, first compound 0.001 µM
[9] = second compound 0.1 µM, first compound 0.00316 µM
[10] = second compound 0.1 µM, first compound 0.01 µM
[11] = second compound 0.1 µM, first compound 0.0316 µM
[12] = second compound 0.1 µM, first compound 0.1 µM
[13] = second compound 0.316 µM, first compound 0.000316 µM
[14] = second compound 0.316 µM, first compound 0.001 µM
[15] = second compound 0.316 µM, first compound 0.00316 µM
[16] = second compound 0.316 µM, first compound 0.01 µM
[17] = second compound 0.316 µM, first compound 0.0316 µM
[18] = second compound 0.316 µM, first compound 0.1 µM
[19] = second compound 1 µM, first compound 0.000316 µM
[20] = second compound 1 µM, first compound 0.001 µM
[21] = second compound 1 µM, first compound 0.00316 µM
[22] = second compound 1 µM, first compound 0.01 µM
[23] = second compound 1 µM, first compound 0.0316 µM
[24] = second compound 1 µM, first compound 0.1 µM
[25] = second compound 3.16 µM, first compound 0.000316 µM
[26] = second compound 3.16 µM, first compound 0.001 µM
[27] = second compound 3.16 µM, first compound 0.00316 µM
[28] = second compound 3.16 µM, first compound 0.01 µM
[29] = second compound 3.16 µM, first compound 0.0316 µM
[30] = second compound 3.16 µM, first compound 0.1 µM
[31] = second compound 10 µM, first compound 0.000316 µM
[32] = second compound 10 µM, first compound 0.001 µM
[33] = second compound 10 µM, first compound 0.00316 µM
[34] = second compound 10 µM, first compound 0.01 µM
[35] = second compound 10 µM, first compound 0.0316 µM
[36] = second compound 10 µM, first compound 0.1 µM
[37] = second compound 0.0316 µM, first compound 0.316 µM
[38] = second compound 0.0316 µM, first compound 1 µM
[39] = second compound 0.0316 µM, first compound 3.16 µM
[40] = second compound 0.0316 µM, first compound 10 µM
[41] = second compound 0.1 µM, first compound 0.316 µM
[42] = second compound 0.1 µM, first compound 1 µM
[43] = second compound 0.1 µM, first compound 3.16 µM
[44] = second compound 0.1 µM, first compound 10 µM
[45] = second compound 0.316 µM, first compound 0.316 µM
[46] = second compound 0.316 µM, first compound 1 µM
[47] = second compound 0.316 µM, first compound 3.16 µM
[48] = second compound 0.316 µM, first compound 10 µM
[49] = second compound 1 µM, first compound 0.316 µM
[50] = second compound 1 µM, first compound 1 µM
[51] = second compound 1 µM, first compound 3.16 µM
[52] = second compound 1 µM, first compound 10 µM
[53] = second compound 3.16 µM, first compound 0.316 µM
[54] = second compound 3.16 µM, first compound 1 µM
[55] = second compound 3.16 µM, first compound 3.16 µM
[56] = second compound 3.16 µM, first compound 10 µM
[57] = second compound 10 µM, first compound 0.316 µM
[58] = second compound 10 µM, first compound 1 µM
[59] = second compound 10 µM, first compound 3.16 µM
[60] = second compound 10 µM, first compound 10 µM
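Note: spheroids exposed to compounds for seven days before readout.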

CC(=O)c1c(C)c2cnc(Nc3ccc(N4CCNCC4)cn3)nc2n(C2CCCC2)c1=O + Cc1nc(NC(=O)N2CCCC2C(N)=O)sc1-c1ccnc(C(C)(C)C(F)(F)F)c1
IC50 (second compound 0.0316 µM): > 0.1 µM
IC50 (second compound 0.1 µM): > 0.1 µM
IC50 (second compound 0.316 µM): > 0.1 µM
IC50 (second compound 1 µM): > 0.1 µM
IC50 (second compound 3.16 µM): > 0.1 µM
IC50 (second compound 10 µM): > 0.1 µM
viability, T/C [1]: 104%
viability, T/C [2]: 77.1%
viability, T/C [3]: 96%
viability, T/C [4]: 94.3%
viability, T/C [5]: 95.8%
viability, T/C [6]: 73.7%
viability, T/C [7]: 97.2%
viability, T/C [8]: 96.8%
viability, T/C [9]: 106%
viability, T/C [10]: 88.7%
viability, T/C [11]: 103%
viability, T/C [12]: 94.7%
viability, T/C [13]: 104%
viability, T/C [14]: 83.1%
viability, T/C [15]: 84.4%
viability, T/C [16]: 91.5%
viability, T/C [17]: 78.1%
viability, T/C [18]: 73.7%
viability, T/C [19]: 87.8%
viability, T/C [20]: 78.5%
viability, T/C [21]: 73.4%
viability, T/C [22]: 62.2%
viability, T/C [23]: 74.5%
viability, T/C [24]: 66.2%
viability, T/C [25]: 72%
viability, T/C [26]: 74%
viability, T/C [27]: 59.3%
viability, T/C [28]: 67.2%
viability, T/C [29]: 70.3%
viability, T/C [30]: 71.9%
viability, T/C [31]: 52.8%
viability, T/C [32]: 55.5%
viability, T/C [33]: 52.2%
viability, T/C [34]: 55.4%
viability, T/C [35]: 51.4%
viability, T/C [36]: 58.5%

CC(C)n1nc(-c2ccc3oc(N)nc3c2)c2c(N)ncnc21 + Cc1nc(NC(=O)N2CCCC2C(N)=O)sc1-c1ccnc(C(C)(C)C(F)(F)F)c1
IC50 (second compound 0.0316 µM): 0.0617 µM
IC50 (second compound 0.1 µM): 0.0606 µM
IC50 (second compound 0.316 µM): 0.0595 µM
IC50 (second compound 1 µM): 0.0419 µM
IC50 (second compound 3.16 µM): 0.0302 µM
IC50 (second compound 10 µM): 0.0022 µM
viability, T/C [1]: 94%
viability, T/C [2]: 91.7%
viability, T/C [3]: 80.9%
viability, T/C [4]: 77.8%
viability, T/C [5]: 61.1%
viability, T/C [6]: 41.4%
viability, T/C [7]: 102%
viability, T/C [8]: 85.8%
viability, T/C [9]: 108%
viability, T/C [10]: 73.7%
viability, T/C [11]: 76.5%
viability, T/C [12]: 33.1%
viability, T/C [13]: 77.3%
viability, T/C [14]: 89.3%
viability, T/C [15]: 80.5%
viability, T/C [16]: 82.2%
viability, T/C [17]: 71.5%
viability, T/C [18]: 32%
viability, T/C [19]: 70%
viability, T/C [20]: 68.1%
viability, T/C [21]: 74.5%
viability, T/C [22]: 79%
viability, T/C [23]: 56%
viability, T/C [24]: 31.4%
viability, T/C [25]: 72%
viability, T/C [26]: 73.8%
viability, T/C [27]: 73.2%
viability, T/C [28]: 57.5%
viability, T/C [29]: 52%
viability, T/C [30]: 24.3%
viability, T/C [31]: 56%
viability, T/C [32]: 51.5%
viability, T/C [33]: 39.8%
viability, T/C [34]: 52.9%
viability, T/C [35]: 34.3%
viability, T/C [36]: 21.1%

CC1(C)CCC(CN2CCN(c3ccc(C(=O)NS(=O)(=O)c4ccc(NCC5CCOCC5)c([N+](=O)[O-])c4)c(Oc4cnc5[nH]ccc5c4)c3)CC2)=C(c2ccc(Cl)cc2)C1 + Cc1nc(NC(=O)N2CCCC2C(N)=O)sc1-c1ccnc(C(C)(C)C(F)(F)F)c1
IC50 (second compound 0.0316 µM): 7.01 µM
IC50 (second compound 0.1 µM): 6.73 µM
IC50 (second compound 0.316 µM): 6.72 µM
IC50 (second compound 1 µM): 6.91 µM
IC50 (second compound 3.16 µM): 5.32 µM
IC50 (second compound 10 µM): 4.21 µM
viability, T/C [5]: 88.8%
viability, T/C [6]: 95%
viability, T/C [37]: 83.5%
viability, T/C [38]: 123%
viability, T/C [39]: 97.1%
viability, T/C [40]: 29.1%
viability, T/C [11]: 90.4%
viability, T/C [12]: 93.2%
viability, T/C [41]: 99.4%
viability, T/C [42]: 99.8%
viability, T/C [43]: 107%
viability, T/C [44]: 24.8%
viability, T/C [17]: 93.3%
viability, T/C [18]: 85.8%
viability, T/C [45]: 104%
viability, T/C [46]: 99%
viability, T/C [47]: 98.5%
viability, T/C [48]: 25.7%
viability, T/C [23]: 88.9%
viability, T/C [24]: 72.6%
viability, T/C [49]: 93.3%
viability, T/C [50]: 87.6%
viability, T/C [51]: 91.1%
viability, T/C [52]: 32.5%
viability, T/C [29]: 89.3%
viability, T/C [30]: 76.8%
viability, T/C [53]: 67%
viability, T/C [54]: 76.5%
viability, T/C [55]: 66.6%
viability, T/C [56]: 31.4%
viability, T/C [35]: 65.7%
viability, T/C [36]: 64.6%
viability, T/C [57]: 55.8%
viability, T/C [58]: 61.5%
viability, T/C [59]: 65.7%
viability, T/C [60]: 12%

CCCS(=O)(=O)Nc1ccc(F)c(C(=O)c2c[nH]c3ncc(-c4ccc(Cl)cc4)cc23)c1F + Cc1nc(NC(=O)N2CCCC2C(N)=O)sc1-c1ccnc(C(C)(C)C(F)(F)F)c1
IC50 (second compound 0.0316 µM): 5.75 µM
IC50 (second compound 0.1 µM): 5.49 µM
IC50 (second compound 0.316 µM): 5.17 µM
IC50 (second compound 1 µM): 6.58 µM
IC50 (second compound 3.16 µM): 4.64 µM
IC50 (second compound 10 µM): 4.35 µM
viability, T/C [5]: 106%
viability, T/C [6]: 87.6%
viability, T/C [37]: 89.8%
viability, T/C [38]: 86.1%
viability, T/C [39]: 111%
viability, T/C [40]: 7.09%
viability, T/C [11]: 96.3%
viability, T/C [12]: 91.9%
viability, T/C [41]: 82.2%
viability, T/C [42]: 77.2%
viability, T/C [43]: 90.2%
viability, T/C [44]: 9.01%
viability, T/C [17]: 90.7%
viability, T/C [18]: 78.6%
viability, T/C [45]: 70.8%
viability, T/C [46]: 77.7%
viability, T/C [47]: 85.5%
viability, T/C [48]: 8.6%
viability, T/C [23]: 79.5%
viability, T/C [24]: 84.5%
viability, T/C [49]: 86%
viability, T/C [50]: 70.8%
viability, T/C [51]: 80.5%
viability, T/C [52]: 32.7%
viability, T/C [29]: 57%
viability, T/C [30]: 66.4%
viability, T/C [53]: 75.9%
viability, T/C [54]: 49.3%
viability, T/C [55]: 74.3%
viability, T/C [56]: 20.7%
viability, T/C [35]: 58.1%
viability, T/C [36]: 66.9%
viability, T/C [57]: 60.8%
viability, T/C [58]: 67.9%
viability, T/C [59]: 74.1%
viability, T/C [60]: 9.34%

Source: PubChem BioAssay AID1963963 (Molecular Pharmacology Branch, DTP, NCI, 2024)
